The values that follow come from PubChem BioAssay (NCI).

Test systems include A549 NSCLC; BT-549 breast; CCRF-CEM leukemia; EKVX NSCLC; HCT-116 colon; HOP-62 NSCLC; HT29 colon; LOX IMVI melanoma; MDA-N; NCI-H226 lung; OVCAR-8 ovarian; SK-MEL-28 melanoma; SK-MEL-5 melanoma; SK-OV-3 ovarian; SNB-19 CNS; TK-10 renal; UACC-257 melanoma; UO-31 renal.
Common to all, as to test: growth of human tumour cells (NCI), 48 h

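Briefly, cells in 96-well plates were exposed to five compound concentrations for 48 h, and endpoints were estimated by linear interpolation. TGI is the concentration that stops growth completely.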

Regarding `CCCCCCCCCCCCCCC(O)C[N+](C)(CCO)CCO` (stereo unspecified), the TGI with A549 NSCLC is 34.3 µM; in the assay on BT-549 breast it was 10.8 µM; in the assay on CCRF-CEM leukemia it was 9.82 µM; in the assay on EKVX NSCLC, 42.6 µM; in the assay with HCT-116 colon it was 23.8 µM; in the assay with HOP-62 NSCLC it was 10.3 µM. The TGI with HT29 colon was determined as 12.1 µM; with LOX IMVI melanoma, 4.66 µM; in the assay on MDA-N, 22.8 µM; in the assay with NCI-H226 lung it was 5.63 µM; in the assay on OVCAR-8 ovarian, 18.8 µM; with SK-MEL-28 melanoma it was 22.4 µM. In addition, the TGI is 16.9 µM in the assay with SK-MEL-5 melanoma; 30.7 µM with SK-OV-3 ovarian; 3.39 µM with SNB-19 CNS; 4.16 µM with TK-10 renal; 26.7 µM in the assay with UACC-257 melanoma; 17 µM in the assay on UO-31 renal.
Take `Cc1csc2c1-n1cccc1C2=O`: the TGI with A549 NSCLC, with BT-549 breast, in the assay with CCRF-CEM leukemia, with EKVX NSCLC, with HCT-116 colon and with HOP-62 NSCLC was greater than 100 µM throughout. In addition, the TGI in the assay with HT29 colon, in the assay on LOX IMVI melanoma, in the assay with MDA-N, in the assay with NCI-H226 lung, with OVCAR-8 ovarian and in the assay on SK-MEL-28 melanoma was greater than 100 µM in each case. Besides, the TGI in the assay with SK-MEL-5 melanoma, with SK-OV-3 ovarian, in the assay on SNB-19 CNS, in the assay on TK-10 renal, with UACC-257 melanoma and in the assay on UO-31 renal was greater than 100 µM each time.
On to `CC(C)=CCc1[nH]c2ccccc2c1C1=C(O)C(=O)C(c2c(CC=C(C)C)[nH]c3ccccc23)=C(O)C1=O`, for which the TGI with A549 NSCLC was found to be 11.2 µM; in the assay on BT-549 breast, 1.59 µM; in the assay with CCRF-CEM leukemia it was 6.83 µM; in the assay with EKVX NSCLC it was 7.59 µM; in the assay with HCT-116 colon, 3.78 µM; with HOP-62 NSCLC, 2.61 µM. Moreover, the TGI with HT29 colon was determined as 6.34 µM; with LOX IMVI melanoma, 4.22 µM; in the assay on MDA-N it was 11.5 µM; in the assay with NCI-H226 lung, 4.6 µM; in the assay on OVCAR-8 ovarian it was 7.78 µM; in the assay with SK-MEL-28 melanoma, 2.9 µM. For the same compound, the TGI in the assay with SK-MEL-5 melanoma was found to be 4.12 µM; in the assay on SK-OV-3 ovarian, 4.13 µM; with SNB-19 CNS, 16.4 µM; in the assay on UACC-257 melanoma it was 6.95 µM; with UO-31 renal, 3.14 µM.
Consider `CC(=O)Oc1c(N2CCCCC2)c(C(=O)c2ccccc2)c(O)c2ccn(N(C)C)c12`, for which the TGI in the assay on A549 NSCLC was greater than 100 µM; in the assay on BT-549 breast it was 42.7 µM; in the assay with CCRF-CEM leukemia, 76.1 µM; with EKVX NSCLC it was 31.2 µM; in the assay with HCT-116 colon, 22.5 µM; in the assay on HOP-62 NSCLC, 93.2 µM. In addition, the TGI in the assay with HT29 colon came to 29.3 µM; in the assay with LOX IMVI melanoma it was 33.1 µM; in the assay on MDA-N, 35.3 µM; in the assay on NCI-H226 lung, 32.4 µM; with OVCAR-8 ovarian, 58.1 µM; in the assay on SK-MEL-28 melanoma, 34.8 µM. Moreover, the TGI in the assay on SK-MEL-5 melanoma came out at 29.7 µM; in the assay on SK-OV-3 ovarian, 65.4 µM; in the assay on SNB-19 CNS, 64.3 µM; in the assay on TK-10 renal, 36.8 µM; with UACC-257 melanoma, 31.2 µM; in the assay on UO-31 renal, 35.4 µM.
Take `C=C1CC(Cn2ccc(=O)[nH]c2=O)(c2ccc(Cl)cc2)OC1=O` (stereo unspecified): the TGI in the assay on A549 NSCLC amounted to 32.2 µM; in the assay on BT-549 breast, 18 µM; with CCRF-CEM leukemia, 3.46 µM; in the assay with EKVX NSCLC, 35 µM; with HCT-116 colon, 5.63 µM; with HOP-62 NSCLC, 36.4 µM. Further, the TGI with HT29 colon is 13.4 µM; in the assay on LOX IMVI melanoma it was 5.94 µM; in the assay with MDA-N, 17.1 µM; in the assay with NCI-H226 lung, 49.9 µM; with OVCAR-8 ovarian, 24.5 µM; in the assay with SK-MEL-28 melanoma, 13.7 µM. Further, the TGI is 10.8 µM in the assay on SK-MEL-5 melanoma; 28.3 µM in the assay with SK-OV-3 ovarian; greater than 71.1 µM with SNB-19 CNS; 4.72 µM in the assay with TK-10 renal; 12.4 µM with UACC-257 melanoma; 33 µM in the assay on UO-31 renal.
`COc1cc2c3c(n(C)c(=O)c2cc1OC)-c1cc2c(cc1/C3=C\CCCI)OCO2`: the TGI in the assay on A549 NSCLC, in the assay with BT-549 breast, in the assay with CCRF-CEM leukemia, in the assay on EKVX NSCLC, with HCT-116 colon and with HOP-62 NSCLC was greater than 100 µM each time. The TGI with HT29 colon, with LOX IMVI melanoma, in the assay with MDA-N, in the assay with NCI-H226 lung, in the assay on OVCAR-8 ovarian and in the assay on SK-MEL-28 melanoma was greater than 100 µM throughout. The TGI is greater than 100 µM in the assay on SK-MEL-5 melanoma; greater than 100 µM with SK-OV-3 ovarian; greater than 100 µM with SNB-19 CNS; greater than 85.6 µM in the assay on TK-10 renal; greater than 100 µM in the assay with UACC-257 melanoma; greater than 100 µM in the assay with UO-31 renal.
For the compound `CCOC(=O)C(Cc1ccc(OC(=O)OC(C)(C)C)cc1)NC(=O)OC(C)(C)C` (stereo unspecified), the TGI in the assay with A549 NSCLC, in the assay with BT-549 breast, with CCRF-CEM leukemia, in the assay on EKVX NSCLC, in the assay on HCT-116 colon and in the assay on HOP-62 NSCLC was greater than 100 µM in each case. The TGI in the assay on HT29 colon, in the assay on LOX IMVI melanoma, in the assay with MDA-N, in the assay on NCI-H226 lung, in the assay with OVCAR-8 ovarian and in the assay with SK-MEL-28 melanoma was greater than 100 µM each time. Besides, the TGI in the assay on SK-MEL-5 melanoma is greater than 100 µM; with SK-OV-3 ovarian, greater than 100 µM; in the assay with SNB-19 CNS it was greater than 100 µM; with TK-10 renal, greater than 100 µM; with UACC-257 melanoma it was 54.3 µM; in the assay with UO-31 renal it was greater than 100 µM.
In the case of `Cc1nc(C)c(N2CCNCC2)c(=O)[nH]1`, the TGI in the assay on A549 NSCLC, in the assay on BT-549 breast, in the assay on CCRF-CEM leukemia, with EKVX NSCLC, with HCT-116 colon and with HOP-62 NSCLC was greater than 100 µM in each case. Besides, the TGI in the assay with HT29 colon, in the assay with LOX IMVI melanoma, with MDA-N, with NCI-H226 lung, in the assay on OVCAR-8 ovarian and with SK-MEL-28 melanoma was greater than 100 µM each time. Besides, the TGI in the assay on SK-MEL-5 melanoma, in the assay on SK-OV-3 ovarian, with SNB-19 CNS, in the assay with TK-10 renal, in the assay on UACC-257 melanoma and in the assay with UO-31 renal was greater than 100 µM each time.
On to `O=c1oc2ccccc2cc1-c1cn2c(n1)sc1ccccc12`, for which the TGI in the assay on A549 NSCLC is greater than 100 µM; in the assay on BT-549 breast, greater than 100 µM; with CCRF-CEM leukemia it was greater than 100 µM; in the assay on EKVX NSCLC, 34.3 µM; in the assay on HCT-116 colon, greater than 100 µM; in the assay on HOP-62 NSCLC, greater than 100 µM. Also, the TGI in the assay on HT29 colon is 11.8 µM; in the assay on LOX IMVI melanoma it was greater than 100 µM; in the assay on MDA-N it was greater than 100 µM; in the assay with NCI-H226 lung, greater than 100 µM; in the assay with OVCAR-8 ovarian, greater than 100 µM; with SK-MEL-28 melanoma, greater than 100 µM. The TGI in the assay with SK-MEL-5 melanoma, with SK-OV-3 ovarian, in the assay on TK-10 renal, with UACC-257 melanoma and in the assay on UO-31 renal was greater than 100 µM in each case.
With `O=C(NC(=O)c1cc(-c2ccccc2)n[nH]1)c1ccccc1`, the TGI in the assay with A549 NSCLC, in the assay with BT-549 breast, in the assay with CCRF-CEM leukemia, with EKVX NSCLC, in the assay on HCT-116 colon and with HOP-62 NSCLC was greater than 100 µM throughout. In addition, the TGI with HT29 colon, with LOX IMVI melanoma, in the assay on MDA-N, in the assay with NCI-H226 lung, in the assay on OVCAR-8 ovarian and with SK-MEL-28 melanoma was greater than 100 µM each time. In addition, the TGI in the assay with SK-MEL-5 melanoma, in the assay on SK-OV-3 ovarian, in the assay on TK-10 renal, in the assay with UACC-257 melanoma and in the assay on UO-31 renal was greater than 100 µM each time.
For `CSc1ccn(C2CC(F)C(CO)O2)c(=O)n1` (stereo unspecified), the TGI with A549 NSCLC, in the assay on BT-549 breast, with CCRF-CEM leukemia, with EKVX NSCLC, in the assay with HCT-116 colon and in the assay with HOP-62 NSCLC was greater than 100 µM throughout. The TGI with HT29 colon, in the assay with LOX IMVI melanoma, with MDA-N, in the assay on NCI-H226 lung, in the assay on OVCAR-8 ovarian and with SK-MEL-5 melanoma was greater than 100 µM in each case. For the same compound, the TGI in the assay with SK-OV-3 ovarian, with SNB-19 CNS, with TK-10 renal, in the assay with UACC-257 melanoma and in the assay on UO-31 renal was greater than 100 µM each time.
Turning to `N=c1c2c(=S)n(-c3ccccc3)c(=S)n(-c3ccccc3)c2nc(SCCN2CCCC2)n1-c1ccccc1`, the TGI with A549 NSCLC worked out at 8.5 µM; with BT-549 breast it was 5.13 µM; in the assay with CCRF-CEM leukemia it was 1.25 µM; with EKVX NSCLC, 7.23 µM; in the assay on HCT-116 colon, 4.43 µM; in the assay with HOP-62 NSCLC, 12.4 µM. The TGI in the assay on HT29 colon was 3.6 µM; in the assay with LOX IMVI melanoma it was 3.46 µM; in the assay on MDA-N, 4.36 µM; in the assay with NCI-H226 lung, 18.4 µM; in the assay on OVCAR-8 ovarian, 4.2 µM; with SK-MEL-28 melanoma, greater than 38.7 µM. Moreover, the TGI is 12.1 µM in the assay with SK-MEL-5 melanoma; 25.3 µM with SK-OV-3 ovarian; 31.6 µM in the assay with SNB-19 CNS; 3.03 µM in the assay on TK-10 renal; 3.06 µM in the assay with UACC-257 melanoma.
